Test results: US10513694B2, “Thienopyrrole compounds and uses thereof” (PROMEGA CORPORATION, priority 2015, dated 2019)

Experiments:
Type in all cases: cell-based
[1] = tested on: Nluc enzyme; test: Multiplex RealTime-Glo / Caspase-Glo 3/7 in MCF7 cells
Method: (§1) A) In a Corning 3570 assay plate, MCF7 cells were plated at 1,000 cells/well in 20 μL of cell culture media (EMEM supplemented with 0.01 mg/mL human recombinant insulin and 10% fetal bovine serum) and incubated in overnight. 10 μL of 4× REALTIME-GLO™ MT Cell Viability reagents (Promega Corporation) in media or 10 μL media only was added to the cells. 10 μL of 40 μM staurosporine in media or 10 μL media only (control) was added to the cells. The cells were incubated, and caspase activation monitored at 5.5 hrs post-reagent addition. To monitor caspase activation, 40 μL CASPASE-GLO® 3/7 Assay Reagent (Promega Corporation), either on its own (Caspase) or with 200 μM of JRW-0004, JRW-0013, or JRW-0042, was added. Reactions were incubated at RT, and luminescence was measured at 1 hr 10 min post-reagent addition on Tecan M1000 Pro plate reader.
(§2) When comparing the signal generated from the CASPASE-GLO® reagent in media only versus the signal generated in media containing REALTIME-GLO™ reagent, the signal is higher in the multiplex reaction.

[2] = biological target: Nluc (Oplophorus gracilirostris, UniProt Q9GV45, A31E/A60N/A81I/F95D/I117V/K70R/L54V/L99Q/M102K/N193R/P142E/Q151K/Q38R/Q45L/V71I/Y165I); test: as above; parameters: purchased Promega Corporation
Sequence of Nluc (Q9GV45 28-196 with tags or gaps with the stated changes limits assumed): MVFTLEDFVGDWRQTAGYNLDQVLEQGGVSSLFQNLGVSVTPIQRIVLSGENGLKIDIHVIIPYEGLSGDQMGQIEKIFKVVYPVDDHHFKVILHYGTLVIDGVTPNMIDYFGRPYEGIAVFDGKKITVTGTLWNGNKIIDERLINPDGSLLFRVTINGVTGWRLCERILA
Method: as §1, §2

[3] = tested on: B2AR-Nluc or Nluc-B2AR fusion protein; test: Cell permeability with bioluminescent imaging (HeLa, B2AR-Nluc / Nluc-B2AR); conditions: 30 μM compound, 10 μM furimazine
Method: HeLa cells were transiently transfected with Beta-2 Adrenergic Receptor-Nluc (B2AR-Nluc; C-Terminus Nluc) or Nluc-Beta-2 Adrenergic Receptor (Nluc-B2AR; N-terminus Nluc) fusion protein to anchor and orient Nluc intracellularly or extracellularly, respectively. 24 hrs post-transfection, cells were treated with −/+30 μM of a thienopyrrole compound, JRW-0147, JRW-0051, and JRW-0138. 10 μM furimazine was added, and luminescence was detected by imaging on the Olympus LV200.

[4] = tested on: Src-Nluc fusion protein; test: Target engagement model (Src-Nluc BRET); conditions: HEK293 Src-Nluc -/+ 50 μg/mL digitonin; 1 μM Dasatinib-DY605 tracer; 2 hrs
Method: HEK293 cells were transiently transfected with Src-Nluc fusion protein. 24 hours post-transfection, cells were treated with −/+50 μg/mL digitonin to simulate a live and lytic scenario, respectively. Intact cells and permeabilized cells were labeled with 1 μM Dasatinib-DY605 tracer (impermeable) and treated with a cell impermeable thienopyrrole compound JRW-0147 response curve for 2 hrs. 10 μM furimazine was added, and a BRET ratio 610/450 nm was recorded.

[5] = tested on: HEK293 cells; test: Cell viability and toxicity (CellTiter-Glo); conditions: up to 100 μM after 18 hrs
Method: HEK293 cells were plated at 20 k cells/well and exposed to vehicle (DMSO), digitonin (positive control for cell death), or JRW-0344 for 10 min/30 min/120 min/240 min/or 18 hrs. CellTiter-Glo (Promega Corp.) was added, and luminescence measured.

[6] = tested on: SRC-Nluc or Nluc-HaloTag; test: Inhibition of extracellular luciferase activity (SRC-Nluc / Nluc-HaloTag BRET); conditions: HEK293; 1 μM Dasatinib-DY605 (SRC-Nluc) or 100 nM NanoBRET-618 (Nluc-HaloTag)
Method: HEK293 were transiently transfected with either SRC-Nluc or Nluc-HaloTag. 24 hrs post-transfection, 20 k/cells were plated into wells of a 96-well plate (Costar 3600). 1 μM of the cell impermeable tracer Dasatinib-DY605 was added to the HEK293 SRC-Nluc expressing cells, and 100 nM of the cell permeable tracer NanoBRET-618, was added to the Nluc-HaloTag expressing cells. Both HEK293 SRC-Nluc and Nluc-HaloTag cells were exposed to a dose-response curve of JRW-0344.

[7] = 10 μM Stauro vs Control, 200 μM compound
[8] = CASPASE-GLO 3/7 reagent with 200 μM compound, 1 hr 10 min

SMILES: CCN(C(=O)Cn1c(C(=O)N[C@H]2CC[C@H](C(=O)OC)CC2)cc2sccc21)c1cccc(C)c1 [JRW-0013, trans-methyl-4-(4-(2-(ethyl(m-tolyl)amino)-2-oxoethyl)-4H-thieno[3,2-b]pyrrole-5-carboxamido)cyclohexane-1-carboxylate]
- Fold Cont, Media only [1, 7]: 6.85
- Avg (luminescence), Media only, 10 μM Stauro [1, 8]: 55282
- Avg (luminescence), Media only, Control [1, 8]: 8069
- Fold Cont, Media containing RealTime-Glo [2, 7]: 6.29
- Avg (luminescence), Media containing RealTime-Glo, 10 μM Stauro [2, 8]: 54338
- Avg (luminescence), Media containing RealTime-Glo, Control [2, 8]: 8636

SMILES: CCN(C(=O)Cn1c(C(=O)N[C@H]2CC[C@H](C(=O)NCCCCCC(=O)O)CC2)cc2sccc21)c1cccc(C)c1 [JRW-0147, 6-(trans-4-(4-(2-(ethyl(m-tolyl)amino)-2-oxoethyl)-4H-thieno[3,2-b]pyrrole-5-carboxamido)cyclohexane-1-carboxamido)hexanoic acid]
- Permeability and inhibition of extracellular / intracellular Nluc by imaging (FIG. 14) [3]: impermeable and inhibited extracellular Nluc and enhanced intracellular Nluc
- Inhibition of BRET in cell debris vs inside cells (FIGS. 15B-15C) [4]: inhibited BRET in cell debris, but not BRET inside cells

SMILES: CCN(C(=O)Cn1c(C(=O)N[C@H]2CC[C@H](C(=O)NCCCCCCS(=O)(=O)[O-])CC2)cc2sccc21)c1cccc(C)c1.[Na+] [JRW-0344, Sodium 6-(trans-4-(4-(2-(ethyl(m-tolyl)amino)-2-oxoethyl)-4H-thieno[3,2-b]pyrrole-5-carboxamido)cyclohexane-1-carboxamido)hexane-1-sulfonate]
- Toxicity (FIG. 18A) [5]: no apparent toxicity
- Inhibition of BRET (FIGS. 20A-20C) [6]: inhibits BRET in cell debris in the HEK293 SRC-Nluc expressing cells, but not in HEK293 Nluc-HaloTag expressing cells
